# Source: publication PMC5159191 (Nature, 2016)
# Test system: CCR2-T4L
# Assay type: binding, human
# Settings: [3H]-INCB-3344 homologous displacement
structure (smiles),measurement,value
CCO[C@H]1CN(C2CCC(O)(c3ccc4c(c3)OCO4)CC2)C[C@@H]1NC(=O)CNC(=O)c1cccc(C(F)(F)F)c1 (stereo partly shown) [INCB-3344],improvement of affinity towards CCR2-T4L compared to WT CCR2,approximately 2 fold
